Tests used:
E. coli = details: 25° C.
Description: (§1) FIG. 4 schematic illustrates the apparatus used in this experiment. Equipment included: a purified clean dry air (CDA) gas supply; a pressurized deionized (DI) water supply; a pressure regulator with gauge, a Filterite MPTE-010-1/4CS 0.01 micron gas filter; 3 mass flow controllers (MFCs); an MFC control box; a Stable Gaseous Delivery (SGD) System (i.e., “Concentrator” in the diagram) and a relative humidity system (RHS) (RASIRC, San Diego, Calif.). Membranes using a fluorinated ion-exchange polymer prepared as an ammonium salt were utilized.
Operation of the decontamination apparatus can be understood with reference to FIG. 4. The CDA gas pressure was maintained at 25 psig with the pressure regulator. A 0.01 micron filter removed particulates from the gas stream. The MFCs controlled the flow of the carrier gas streams and the dilution gas stream. The RHS was used to add water gas to the gas stream. […] The water temperature was used to control the output of the humidifier. The valves (V-1, V-2, and V-3) were used to send either the dry CDA gas stream, the RHS gas stream, and/or SGD gas stream through the furnace or out to vent. TC-1 will be used to measure the temperature of the dry CDA gas stream. TC-2 will be used to measure gas temperature downstream of the RHS. TC-3 and TC-4 were used to measure the gas temperature downstream of the SGD. […]

bacterial samples = details: visible mist or fog present, droplets condensed onto the sample
bovine genomic DNA = system: bovine genomic DNA
Description: as §1
Operation of the decontamination apparatus can be understood with reference to FIG. 4. The CDA gas pressure was maintained at 25 psig with the pressure regulator. A 0.01 micron filter removed particulates from the gas stream. The MFCs controlled the flow of the carrier gas streams and the dilution gas stream. […]
A PCR plate to be used for quantifying amplifiable DNA was prepared with three replicates at each target input level (i.e., ranging from 0 ng to 1,000 ng). In each instance, measured aliquots of an aqueous solution of bovine genomic DNA were added to individual wells of the plate, and then dried. […] Amplification reactions were carried out using procedures familiar to those of ordinary skill in the art, and the appearance of fluorescent signals monitored as a function of time in a real-time format.

Structure (SMILES): OO [Hydrogen Peroxide Gas, hydrogen peroxide]
- Growth on tryptic soy agar plates after H202 treatment (E. coli; E. coli 1.7×10^7 cfu per spot, gas-phase H2O2 at 505 ppm and H2O at 2122 ppm for 60 minutes): No Growth
- number of viable bacteria after exposure (E. coli; E. coli, gas-phase H2O2 505 ppm, 60 minutes): undetectable level
- reduction of the number of viable organisms (bacterial samples): did not significantly reduce
- reduction of amplifiable DNA (bovine genomic DNA; sample containing the greatest amount of starting material): about 4 logs
- amplifiable DNA after treatment (bovine genomic DNA; sample containing the lowest amount of starting material): completely undetectable

Source: patent publication US9932630B2, “Method and system for decontaminating materials” (RASIRC, Inc., priority 2014, dated 2018)
